# Data from patent publication US20090054394A1, “POLYMORPHISMS IN MGST3 ARE ASSOCIATED WITH ELEVATED ALAT LEVELS AFTER XIMELAGATRAN TREATMENT” (priority 2005, published 2009).
# System: alanine aminotransferase (ALAT) levels
# Assay: Clinical trials, longer-term ximelagatran treatment: alanine aminotransferase (ALAT) elevation
# Format: in vivo, human
# Excerpt: Phase III clinical trials have been performed using fixed doses of melagatran and ximelagatran for the prevention of VTE in hip or knee replacement surgery. In addition, clinical trials have been performed using ximelagatran for the treatment and long-term secondary prevention of VTE, and for the prevention of stroke in patients with non-valvular atrial fibrillation. Ximelagatran has also been tested for secondary thrombosis prophylaxis post-myocardial infarction/acute coronary syndrome (ACS).
# Alanine aminotransferrase (ALAT) is an enzyme mostly expressed in the liver (EC 2.6.1.2). It is also called serum glutamate pyruvate transaminase (SGPT) or alanine transaminase (ALT). This enzyme is release into the plasma by liver cell death, which is a normal event. However, when liver cell death increases, ALAT levels rise above the normal range. The spill-over of this enzyme into blood is routinely measured as a marker of abnormal liver-cell damage. For example, alcoholic or viral hepatitis will increase ALAT levels, as will severe congestive heart failure. ALAT is also markedly raised in hepatitis and other acute liver damage. An elevated ALAT in the presence of normal levels of plasma alkaline phosphatase helps distinguish liver disease caused by liver-cell damage from diseases caused by problems in biliary ducts. Elevations of ALAT are normally measured in multiples of the upper limit of normal (ULN), with a reference range of 15-45 U/L in most laboratories. In 1987, in a study of 19,877 healthy Air Force recruits, only 99 (0.5%) had confirmed ALAT elevations (as reviewed in Green & Flamm (2002) Gastroenterology 123:1367-1384).
# The increase in ALAT values with ximelagatran, usually occurred within the first 6 months of treatment and were mainly asymptomatic. […] Subject to the future regulatory approval of ximelagatran, regular liver function testing (LFT) using an appropriate algorithm may be required if ximelagatran is used for treatment periods exceeding a month. […]
smiles,measurement,setting,value
"CCOC(=O)CN[C@@H](C(=O)N1CC[C@H]1C(=O)NCc1ccc(/C(N)=N\O)cc1)C1CCCCC1 [ximelagatran, EtOOC—CH2—(R)Cgl-Aze-Pab-OH]",patients exhibiting ALAT 3-fold or more above the upper limit of normal (≧3×ULN),"longer-term treatment (>35 days), 1.2% in the comparator groups",7.9%
same,reversibility of the increases in ALAT,regardless of whether treatment was continued or discontinued,reversible in most patients
same,time of occurrence of the increase in ALAT values,"usually, time from start of treatment",≤ 6 months
